In article PMC7281072 (Cancers, 2020):

Key:
[1] = test system: UWB1.289 cancer cell line; experiment: cells; conditions: Homo sapiens, UWB1289, 48 h
[2] = test system: ERK1,2 phosphorylation; experiment: ERK1/2 phosphorylation ELISA, UWB1.289+BRCA1 cells; assay type: cell-based, human; conditions: for Vmax ± SE, pERK 1/2 inhibition: Michaelis Menten model; for IC50: Homo sapiens, read-out: IC50, pERK 1/2 inhibition
[3] = test system: AKT1,2 phosphorylation; experiment: AKT phosphorylation ELISA, SK-OV-3 cells; assay type: cell-based, human; conditions: for Vmax ± SE, pAKT 1/2 inhibition: Michaelis Menten model; for IC50: Homo sapiens, read-out: IC50, pAKT 1/2 inhibition
[4] = test system: OVCAR-3 cancer cell line
[5] = test system: SK-OV-3 cancer cell line; experiment: cells; conditions: Homo sapiens, SK-OV-3, 48 h
[6] = test system: ERK1,2 phosphorylation; experiment: ERK1/2 phosphorylation ELISA, OVCAR-3 cells; assay type: cell-based, human; conditions: for Vmax ± SE, pERK 1/2 inhibition: Michaelis Menten model; for IC50: Homo sapiens, read-out: IC50, pERK 1/2 inhibition
[7] = test system: SK-OV-3 cancer cell line
[8] = test system: AKT1,2 phosphorylation; experiment: AKT phosphorylation ELISA, UWB1.289 cells; assay type: cell-based, human; conditions: for Vmax ± SE, pAKT 1/2 inhibition: Michaelis Menten model; for IC50: Homo sapiens, read-out: IC50, pAKT 1/2 inhibition
[9] = test system: pAKT; experiment: Western immunoblotting densitometry, pAKT, SKOV-3 cells; assay type: cell-based, human; conditions: 25 μM; for ratio [pAKT]/[GAPDH] band intensity: SKOV-3 cells; for ratio [pAKT]/[GAPDH] band intensity, single blot (panel A): panel A lower set, cell line not given, control ratio 0.996
[10] = test system: ERK1,2 phosphorylation; experiment: ERK1/2 phosphorylation ELISA, SK-OV-3 cells; assay type: cell-based, human; conditions: for Vmax ± SE, pERK 1/2 inhibition: Michaelis Menten model; for IC50: Homo sapiens, read-out: IC50, pERK 1/2 inhibition
[11] = test system: SKOV-3 human ovarian adenocarcinoma xenograft; parameters: species or system CB17 SCID mice; conditions: mouse, in vivo
[12] = test system: CB17 SCID mice; conditions: both, mouse, in vivo, ip
[13] = read-out: GI50 (50% Growth Inhibition)
[14] = read-out: IC50 (cytotoxic effect)

For `C[C@]12CC[C@@H]3c4ccc(OC(=O)CCOc5ccc(N(CCCl)CCCl)cc5)cc4CC[C@H]3[C@@H]1CCC(=O)N2` [ENGA-L08E, 12a-methyl-2-oxo-1,2,3,4,4a,4b,5,6,10b,11,12,12a-dodecahydronaphtho[2,1-f]quinolin-8-yl 3-(4-(bis (2-chloroethyl)amino)phenoxy) propanoate], the GI50 [1, 13] was 8 ± 0.9 µM, the IC50 [1, 14] was 45 ± 3.3 µM and the “Vmax ± SE, pERK 1/2 inhibition” value ([2]; 15 min) was 56.97 ± 0.61. The “Vmax ± SE, pERK 1/2 inhibition” value ([2]; 30 min) was 66.56 ± 1.99, the “Vmax ± SE, pERK 1/2 inhibition” value ([2]; 60 min) was 71.72 ± 1.86 and the IC50 ([2]; 0.25 h, 15 min) was 25 µM. The IC50 ([2]; 0.5 h, 30 min) was 10.7 µM, the IC50 ([2]; 1 h, 60 min) was 8.56 µM and the “Vmax ± SE, pAKT 1/2 inhibition” value ([3]; 15 min) was 79.22 ± 0.89. For the same compound, the “Vmax ± SE, pAKT 1/2 inhibition” value ([3]; 30 min) was 81.78 ± 2.53, the “Vmax ± SE, pAKT 1/2 inhibition” value ([3]; 60 min) was 82.20 ± 1.68 and the IC50 ([3]; 0.25 h, 15 min) was 29.6 µM. For the same compound, the IC50 ([3]; 0.5 h, 30 min) was 24.9 µM, the IC50 ([3]; 1 h, 60 min) was 21.8 µM and the “TGI (Total Growth Inhibition)” value [4] was 40 ± 2.7 μΜ. For the same compound, the GI50 [5, 13] was 10 ± 0.5 µM, the IC50 [5, 14] was greater than 100 µM and the “Vmax ± SE, pERK 1/2 inhibition” value ([6]; 15 min) was 56.77 ± 0.49. For the same compound, the “Vmax ± SE, pERK 1/2 inhibition” value ([6]; 30 min) was 61.29 ± 1.88, the “Vmax ± SE, pERK 1/2 inhibition” value ([6]; 60 min) was 63.79 ± 1.33 and the IC50 ([6]; 0.25 h, 15 min) was 48.9 µM. The IC50 ([6]; 0.5 h, 30 min) was 17.8 µM, the IC50 ([6]; 1 h, 60 min) was 9.51 µM and the “TGI (Total Growth Inhibition)” value [7] was 76 ± 7.2 μΜ. For the same compound, the “Vmax ± SE, pAKT 1/2 inhibition” value ([8]; 15 min) was 63.02 ± 1.33, the “Vmax ± SE, pAKT 1/2 inhibition” value ([8]; 30 min) was 68.23 ± 0.99 and the “Vmax ± SE, pAKT 1/2 inhibition” value ([8]; 60 min) was 70.28 ± 2.75. It also gave an IC50 ([8]; UWB1289, 0.25 h, 15 min) of 14.1 µM, an IC50 ([8]; UWB1289, 0.5 h, 30 min) of 8.24 µM and an IC50 ([8]; UWB1289, 1 h, 60 min) of 6.6 µM. For the same compound, the “ratio [pAKT]/[GAPDH] band intensity” value ([9]; 15min, control ratio 0.98) was 1.04, the “ratio [pAKT]/[GAPDH] band intensity” value ([9]; 30min, control ratio 0.98) was 0.66 and the “ratio [pAKT]/[GAPDH] band intensity” value ([9]; 1h, control ratio 1.02) was 0.63. For the same compound, the “ratio [pAKT]/[GAPDH] band intensity” value ([9]; 3h, control ratio 0.99) was 0.52, the “ratio [pAKT]/[GAPDH] band intensity” value ([9]; 12h, control ratio 0.94) was 0.50 and the “ratio [pAKT]/[GAPDH] band intensity, single blot (panel A)” value ([9]; 1h) was 0.22. For the same compound, the “ratio [pAKT]/[GAPDH] band intensity, single blot (panel A)” value ([9]; 3h) was 0.20, the “Vmax ± SE, pERK 1/2 inhibition” value ([10]; 15 min) was 45.92 ± 2.07 and the “Vmax ± SE, pERK 1/2 inhibition” value ([10]; 30 min) was 71.49 ± 0.55. The “Vmax ± SE, pERK 1/2 inhibition” value ([10]; 60 min) was 74.32 ± 0.43, the IC50 ([10]; 0.25 h, 15 min) was greater than 50 µM and the IC50 ([10]; 0.5 h, 30 min) was 11.2 µM. The IC50 ([10]; 1 h, 60 min) was 7.67 µM, the “Median Overall Survival (OS)” value [11] was 105 days and the “Progression Free Survival (PFS)” value [11] was 13 days. For the same compound, the “Response Rate (RR)” value [11] was 100%, the “Cures (mice alive for 120 days after tumor inoculation)” value ([11]; ip) was 2/5 and the “MST (mean survival time)” value ([11]; ip) was 76.5 ± 3.9 p < 0.01 Days. The “T/C% (mean survival time of treated versus saline controls)” value ([11]; ip) was 187.9%, the “TI% (Tumor Inhibition)” value ([11]; ip) was 76.4% and the “size of the primary tumor” value ([11]; ip) was 390 ± 21.4 mm^3. For the same compound, the LD10 [12] was 75 mg/kg.
